Measured values from EP1247803A2, “Indolinone compounds suitable for modulation of protein kinases” (Sugen, Inc., priority 1996, dated 1998).

What was measured:
[1] = target: T1, FLK-1 receptor (Mus musculus, UniProt P35918); test: FLK-1 ELISA (kinase activity of the FLK-1 receptor in FLK-1/NIH3T3 cells, VEGF stimulated); assay type: cell-based
T1 construct: expressed in transfected cells; host or cells: NIH3T3 C7#3
Outline: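 NIH3T3 C7#3 cells expressing FLK-1 were seeded at 25.000 cells/well, serum-starved overnight in 0.1% FBS, then treated with compound for two hours at 37°C (final DMSO 0.5%) before VEGF stimulation. Receptor was captured on anti-rabbit IgG-coated ELISA plates bearing affinity-purified anti-FLK-1 antiserum.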

[2] = target: PDGF-R (Homo sapiens, UniProt P09619); test: PDGF-R ELISA; assay type: cell-based
Chain of PDGF-R (P09619 33-1106, species assumed): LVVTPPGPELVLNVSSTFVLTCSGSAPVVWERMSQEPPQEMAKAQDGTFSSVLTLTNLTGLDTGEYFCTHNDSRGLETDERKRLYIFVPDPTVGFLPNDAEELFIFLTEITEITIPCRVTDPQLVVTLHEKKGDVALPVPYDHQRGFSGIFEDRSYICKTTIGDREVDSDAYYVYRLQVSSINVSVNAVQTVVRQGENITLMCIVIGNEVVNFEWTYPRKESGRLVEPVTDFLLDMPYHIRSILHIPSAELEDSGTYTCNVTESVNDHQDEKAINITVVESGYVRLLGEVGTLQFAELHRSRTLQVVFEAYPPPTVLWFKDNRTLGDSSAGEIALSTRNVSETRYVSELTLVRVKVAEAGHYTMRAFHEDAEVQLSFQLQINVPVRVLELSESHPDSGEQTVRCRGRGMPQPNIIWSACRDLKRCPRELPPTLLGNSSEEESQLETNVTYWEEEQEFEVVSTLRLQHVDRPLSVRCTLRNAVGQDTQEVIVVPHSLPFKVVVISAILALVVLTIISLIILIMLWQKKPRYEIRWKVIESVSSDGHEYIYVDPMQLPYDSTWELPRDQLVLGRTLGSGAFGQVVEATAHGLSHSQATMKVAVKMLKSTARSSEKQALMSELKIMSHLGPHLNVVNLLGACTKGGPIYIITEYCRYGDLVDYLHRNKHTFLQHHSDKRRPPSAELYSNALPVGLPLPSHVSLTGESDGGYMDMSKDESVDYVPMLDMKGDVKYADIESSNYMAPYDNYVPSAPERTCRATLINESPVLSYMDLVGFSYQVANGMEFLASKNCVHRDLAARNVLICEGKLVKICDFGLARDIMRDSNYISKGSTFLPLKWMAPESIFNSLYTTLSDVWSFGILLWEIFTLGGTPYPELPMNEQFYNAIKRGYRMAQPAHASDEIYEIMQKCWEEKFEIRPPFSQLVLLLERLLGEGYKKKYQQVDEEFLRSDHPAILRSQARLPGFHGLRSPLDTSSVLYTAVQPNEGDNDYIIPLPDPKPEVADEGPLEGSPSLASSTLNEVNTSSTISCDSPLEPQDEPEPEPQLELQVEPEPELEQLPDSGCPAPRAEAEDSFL
From the text: A PDGF-R ELISA is described in International Patent Publication No. WO 96/40116, published December 19, 1996 by Tang et al.

T1 sequence (P35918 20-1345): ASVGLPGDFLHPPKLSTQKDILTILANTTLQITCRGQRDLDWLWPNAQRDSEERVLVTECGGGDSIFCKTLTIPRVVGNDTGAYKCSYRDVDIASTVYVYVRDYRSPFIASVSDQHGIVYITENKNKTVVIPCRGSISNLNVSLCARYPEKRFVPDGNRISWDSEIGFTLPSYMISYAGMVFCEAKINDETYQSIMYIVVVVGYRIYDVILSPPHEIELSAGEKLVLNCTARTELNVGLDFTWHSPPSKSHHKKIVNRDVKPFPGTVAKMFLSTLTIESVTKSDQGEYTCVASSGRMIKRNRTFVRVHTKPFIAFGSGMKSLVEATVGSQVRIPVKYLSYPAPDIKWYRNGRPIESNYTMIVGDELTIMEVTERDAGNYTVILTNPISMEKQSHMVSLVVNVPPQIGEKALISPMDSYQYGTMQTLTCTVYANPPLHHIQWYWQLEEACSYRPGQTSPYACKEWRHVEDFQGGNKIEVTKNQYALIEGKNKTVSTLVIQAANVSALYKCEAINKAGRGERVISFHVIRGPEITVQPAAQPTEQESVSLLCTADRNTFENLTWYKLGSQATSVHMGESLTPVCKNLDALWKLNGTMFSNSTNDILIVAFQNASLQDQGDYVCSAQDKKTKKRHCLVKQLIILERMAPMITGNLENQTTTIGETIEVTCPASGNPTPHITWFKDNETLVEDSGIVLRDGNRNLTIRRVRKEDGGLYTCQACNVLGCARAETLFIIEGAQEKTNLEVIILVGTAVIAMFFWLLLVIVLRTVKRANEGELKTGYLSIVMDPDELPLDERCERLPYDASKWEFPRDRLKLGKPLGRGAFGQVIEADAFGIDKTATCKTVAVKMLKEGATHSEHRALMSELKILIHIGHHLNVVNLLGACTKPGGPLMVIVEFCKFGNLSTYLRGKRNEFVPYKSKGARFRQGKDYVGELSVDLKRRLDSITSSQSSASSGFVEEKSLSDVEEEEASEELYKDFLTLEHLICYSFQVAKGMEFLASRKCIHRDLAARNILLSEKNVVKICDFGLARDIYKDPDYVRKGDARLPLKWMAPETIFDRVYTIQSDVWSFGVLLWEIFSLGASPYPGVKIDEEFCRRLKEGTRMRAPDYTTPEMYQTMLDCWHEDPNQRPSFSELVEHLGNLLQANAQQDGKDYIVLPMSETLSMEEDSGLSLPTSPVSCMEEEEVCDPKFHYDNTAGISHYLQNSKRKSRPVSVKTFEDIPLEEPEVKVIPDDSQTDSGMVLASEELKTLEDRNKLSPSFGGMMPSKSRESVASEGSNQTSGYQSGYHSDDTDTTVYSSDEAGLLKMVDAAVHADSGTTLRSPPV

Structure (SMILES) | Fik Kinase %Inhibition [1] [%] | PDGF Kinase %Inhibition [2] [%]
CNS(=O)(=O)c1ccc2c(c1)C(=Cc1cc([N+](=O)[O-])c(O)c(C(C)(C)C)c1)C(=O)N2 [10722/D02] | 30.7 | 31.8
O=C1Nc2c(Br)cc(Br)cc2C1=Cc1ccc(C(=O)O)cc1 [10722/A05] | 10.5 | 33.5
CNS(=O)(=O)c1ccc2c(c1)C(=Cc1ccc(C)s1)C(=O)N2 [10717/D07] | -8.4 | 
CNS(=O)(=O)c1ccc2c(c1)C(=Cc1cc(Cl)c(O)c(C(C)(C)C)c1)C(=O)N2 [10722/D08] | 29.1 | 41.5
O=C1Nc2c(Br)cc(Br)cc2C1=Cc1ccc(C(F)(F)F)cc1 [10722/A11] | 6.7 | 21.5
CNS(=O)(=O)c1ccc2c(c1)C(=Cc1c[nH]c3ccccc13)C(=O)N2 [10717/D06] | 1.0 | 
Cc1cc(C=C2C(=O)Nc3ccc(S(=O)(=O)Nc4ccc(C(F)(F)F)cc4)cc32)sc1C [10721/E04] | 16.0 | 
Cc1cc(C=C2C(=O)Nc3ccc(S(=O)(=O)Nc4ccc(C(F)(F)F)cc4)cc32)cc(C)c1O [10722/E07] | 24.3 | 40.9
CCOc1ccccc1C=C1C(=O)Nc2ccc(S(=O)(=O)NC)cc21 [10717/D02] | 5.1 | 
O=C1Nc2ccc(I)cc2C1=Cc1ccc(C(=O)O)cc1 [10722/B05] | 18.5 | 21.5
O=C1Nc2ccc(S(=O)(=O)Nc3ccc(C(F)(F)F)cc3)cc2C1=Cc1ccc(F)cc1F [10722/E06] | 21.4 | 32.9
O=C1Nc2ccc(S(=O)(=O)Nc3ccc(C(F)(F)F)cc3)cc2C1=Cc1cc([N+](=O)[O-])cc(CCl)c1O [10721/E06] | 40.4 | 
O=C1Nc2c(Br)cc(Br)cc2C1=Cc1csc([N+](=O)[O-])c1 [10722/A09] | 7.3 | 21.5
O=C1Nc2ccc(S(=O)(=O)Nc3ccc(C(F)(F)F)cc3)cc2C1=Cc1csc([N+](=O)[O-])c1 [10722/E09] | 16.2 | 26.6
CCCCN(CCCC)c1ccc(C=C2C(=O)Nc3c(Br)cc(Br)cc32)cc1 [10722/A10] | 6.6 | 15.2
CNS(=O)(=O)c1ccc2c(c1)C(=Cc1ccc(F)cc1)C(=O)N2 [10717/D05] | -3.8 | 
Cc1cc(C)c(C=C2C(=O)Nc3ccc(CCCl)cc32)[nH]1 [10721/G08] | 5.4 | 
O=C1Nc2ccc(CCCl)cc2C1=Cc1ccc(Cl)s1 [10721/G07] | 3.3 | 
CC(C)(C)c1cc(C=C2C(=O)Nc3c(Br)cc(Br)cc32)cc(Cl)c1O [10722/A08] | 13.7 | 15.2
CNS(=O)(=O)c1ccc2c(c1)C(=Cc1ccc[nH]1)C(=O)N2 [10717/D09] | -55.0 | 
O=C1Nc2ccc(S(=O)(=O)Nc3ccc(C(F)(F)F)cc3)cc2C1=Cc1ccc(C(F)(F)F)cc1 [10722/E11] | 15.3 | 28.3
CNS(=O)(=O)c1ccc2c(c1)C(=Cc1cc(C(C)(C)C)c(O)c(C(C)(C)C)c1)C(=O)N2 [10721/D11] | 20.6 | 

Structure (SMILES) | Fik Kinase %Inhibition [1] [%] | PDGF Kinase %Inhibition [2] [%]
CNS(=O)(=O)c1ccc2c(c1)C(=Cc1cc(C)c(O)c(C)c1)C(=O)N2 [10722/D07] | 14.1 | 25.5
CC(C)(C)c1cc(C=C2C(=O)Nc3ccc(I)cc32)cc(Cl)c1O [10722/B08] | 11.2 | 27.8
CC(C)(C)c1cc(C=C2C(=O)Nc3ccc(S(=O)(=O)Nc4ccc(C(F)(F)F)cc4)cc32)cc(Cl)c1O [10722/E08] | 18.6 | 38.7
O=C1Nc2ccc(S(=O)(=O)Nc3ccc(C(F)(F)F)cc3)cc2C1=Cc1ccc(Cl)s1 [10721/E07] | 15.6 | 
CNS(=O)(=O)c1ccc2c(c1)C(=Cc1ccc(F)cc1F)C(=O)N2 [10722/D06] | 21.9 | 8.9
O=C1Nc2c(Br)cc(Br)cc2C1=Cc1cccs1 [10717/A03] | 2.9 | 
O=C1Nc2ccc(I)cc2C1=Cc1ccc(C(F)(F)F)cc1 [10722/B11] | 5.2 | 25.5
CC(C)(C)c1cc(C=C2C(=O)Nc3ccc(S(=O)(=O)N4CCOCC4)cc32)cc(C(C)(C)C)c1O [10721/F11] | 29.7 | 
O=C1Nc2ccc(I)cc2C1=Cc1ccc([N+](=O)[O-])s1 [10722/B04] | 14.7 | 3.1
CC(C)(C)c1cc(C=C2C(=O)Nc3ccc(S(=O)(=O)N4CCOCC4)cc32)ccc1O [10721/F09] | 65.2 | 
CC(C)(C)c1cc(C=C2C(=O)Nc3ccc(CCCl)cc32)cc(C(C)(C)C)c1O [10721/G11] | -7.1 | 
Cc1cc(C=C2C(=O)Nc3ccc(CCCl)cc32)sc1C [10721/G04] | 3.2 | 
O=C1Nc2ccc(S(=O)(=O)N3CCOCC3)cc2C1=Cc1ccc(Cl)s1 [10721/F07] | 4.8 | 
Cc1cc(C=C2C(=O)Nc3c(Br)cc(Br)cc32)cc(C)c1O [10722/A07] | 9.4 | 23.8
O=C1Nc2ccc(S(=O)(=O)N3CCOCC3)cc2C1=Cc1cc2c([nH]1)CCCC2 [10721/F05] | 8.1 | 
Cc1cc(C=C2C(=O)Nc3ccc(S(=O)(=O)N4CCOCC4)cc32)sc1C [10721/F04] | 7.4 | 
CC(C)(C)c1cc(C=C2C(=O)Nc3ccc(I)cc32)cc([N+](=O)[O-])c1O [10722/B02] | 10.1 | 28.9
O=C1Nc2ccc(CCCl)cc2C1=Cc1cc2c([nH]1)CCCC2 [10721/G05] | -15.1 | 
CC(C)(C)c1cc(C=C2C(=O)Nc3ccc(S(=O)(=O)Nc4ccc(C(F)(F)F)cc4)cc32)cc([N+](=O)[O-])c1O [10722/E02] | 17.0 | 23.2
CCCCN(CCCC)c1ccc(C=C2C(=O)Nc3ccc(S(=O)(=O)NC)cc32)cc1 [10722/D10] | 8.2 | 41.5
Cn1c(C=C2C(=O)Nc3ccc(S(=O)(=O)Nc4ccc(C(F)(F)F)cc4)cc32)nc2ccccc21 [10721/E02] | 17.2 | 
Cn1cc(Cl)c(C=C2C(=O)Nc3ccc(S(=O)(=O)N4CCOCC4)cc32)n1 [10721/F03] | 9.1 | 

Structure (SMILES) | Fik Kinase %Inhibition [1] [%] | PDGF Kinase %Inhibition [2] [%]
CNS(=O)(=O)c1ccc2c(c1)C(=Cc1c(O)cc(O)cc1O)C(=O)N2 [10722/D03] | 15.0 | -9.4
Cn1c(C=C2C(=O)Nc3ccc(CCCl)cc32)nc2ccccc21 [10721/G02] | 16.4 | 
Cc1cc(C)c(C=C2C(=O)Nc3ccc(S(=O)(=O)Nc4ccc(C(F)(F)F)cc4)cc32)[nH]1 [10721/E08] | 15.7 | 
CNS(=O)(=O)c1ccc2c(c1)C(=Cc1ccc(C(F)(F)F)cc1)C(=O)N2 [10722/D11] | 9.6 | 15.2
Cn1cc(Cl)c(C=C2C(=O)Nc3ccc(CCCl)cc32)n1 [10721/G03] | 12.1 | 
CC(C)(C)c1cc(C=C2C(=O)Nc3ccc(S(=O)(=O)N4CCOCC4)cc32)cc(Br)c1O [10721/F10] | 49.6 | 
CC(C)(C)c1cc(C=C2C(=O)Nc3ccc(CCCl)cc32)cc(Br)c1O [10721/G10] | 24.4 | 
CNS(=O)(=O)c1ccc2c(c1)C(=Cc1c(O)cccc1OC)C(=O)N2 [10717/D10] | -6.0 | 
CNS(=O)(=O)c1ccc2c(c1)C(=Cc1cc(Br)c(O)c(C(C)(C)C)c1)C(=O)N2 [10721/D10] | 23.7 | 
O=C1Nc2ccc(S(=O)(=O)N3CCOCC3)cc2C1=Cc1cc([N+](=O)[O-])cc(CCl)c1O [10721/F06] | 2.2 | 
O=C1Nc2ccc(CCCl)cc2C1=Cc1cc([N+](=O)[O-])cc(CCl)c1O [10721/G06] | 18.9 | 
CNS(=O)(=O)c1ccc2c(c1)C(=Cc1cccn1C)C(=O)N2 [10717/D04] | -2.1 | 
CC(C)(C)c1cc(C=C2C(=O)Nc3ccc(CCCl)cc32)ccc1O [10721/G09] | 20.4 | 
Cc1cc(C)c(C=C2C(=O)Nc3ccc(S(=O)(=O)N4CCOCC4)cc32)[nH]1 [10721/F08] | -6.4 | 
CC(C)(C)c1cc(C=C2C(=O)Nc3ccc(S(=O)(=O)Nc4ccc(C(F)(F)F)cc4)cc32)ccc1O [10721/E09] | 36.9 | 
CNS(=O)(=O)c1ccc2c(c1)C(=Cc1cccs1)C(=O)N2 [10717/D03] | 1.1 | 
CC(C)(C)c1cc(C=C2C(=O)Nc3ccc(S(=O)(=O)Nc4ccc(C(F)(F)F)cc4)cc32)cc(Br)c1O [10721/E10] | 9.3 | 
Cn1cc(Cl)c(C=C2C(=O)Nc3ccc(S(=O)(=O)Nc4ccc(C(F)(F)F)cc4)cc32)n1 [10721/E03] | 10.9 | 
CC(C)(C)c1cc(C=C2C(=O)Nc3ccc(S(=O)(=O)Nc4ccc(C(F)(F)F)cc4)cc32)cc(C(C)(C)C)c1O [10721/E11] | 0.7 | 
O=C1Nc2ccc(S(=O)(=O)Nc3ccc(C(F)(F)F)cc3)cc2C1=Cc1cc2c([nH]1)CCCC2 [10721/E05] | 10.8 | 
CNS(=O)(=O)c1ccc2c(c1)C(=Cc1ccc(Br)cc1)C(=O)N2 [10717/D08] | 6.8 | 
Cn1c(C=C2C(=O)Nc3ccc(S(=O)(=O)N4CCOCC4)cc32)nc2ccccc21 [10721/F02] | 17.0 | 
